According to US20240384268A1, “Oligonucleotides” (Hudson Institute of Medical Research, priority 2021, published 2024):

The sequences below were run against cGAS (Homo sapiens, UniProt Q8N884) (assay: ISD70-driven IP-10 (and IFN-β) production in THP-1 cells, ELISA). Details: MOE-modified ASO at 100 nM; averaged IP-10 levels relative to ISD70 condition.
Format: cell-based
Design: endogenous in cells; host or cells: THP-1 (undifferentiated)

cGAS, sequence (Q8N884 whole entry): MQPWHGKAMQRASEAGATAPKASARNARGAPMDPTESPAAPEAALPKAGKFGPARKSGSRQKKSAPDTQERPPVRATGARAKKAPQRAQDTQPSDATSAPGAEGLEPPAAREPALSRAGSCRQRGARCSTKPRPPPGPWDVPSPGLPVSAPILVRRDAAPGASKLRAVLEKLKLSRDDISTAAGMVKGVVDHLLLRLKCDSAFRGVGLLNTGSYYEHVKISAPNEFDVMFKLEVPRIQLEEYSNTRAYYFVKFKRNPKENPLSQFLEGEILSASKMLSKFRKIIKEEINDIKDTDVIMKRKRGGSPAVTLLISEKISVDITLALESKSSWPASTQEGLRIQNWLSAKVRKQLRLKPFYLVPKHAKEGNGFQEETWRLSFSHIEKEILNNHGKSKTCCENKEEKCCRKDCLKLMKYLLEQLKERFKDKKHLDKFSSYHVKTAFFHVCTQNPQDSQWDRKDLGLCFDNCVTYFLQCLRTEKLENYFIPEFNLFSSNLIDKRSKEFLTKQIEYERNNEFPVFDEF

Sequence | cGAS 100 nM
AACACTTCGTGGGGTCCTTT (antisense; 2'-MOE modified, pattern not given here) [HPRT-664 MOE] | 0.615
AATCCGCCCAAAGGGAACTG (antisense; 2'-MOE modified, pattern not given here) [HPRT-1027 MOE] | 0.494
ACAACCCCTTTCACCATCCC (antisense; 2'-MOE modified, pattern not given here) [MB21D1-689 MOE] | 0.658
ACAGTGTTGAGATACTCGGG (antisense; 2'-MOE modified, pattern not given here) [EGFR-3652 MOE] | 0.297
ACCCACTTGGCAGACCATCA (antisense; 2'-MOE modified, pattern not given here) [CTNN2B-1575 MOE] | 0.571
ACTGACTGTCTTGAGGGTTC (antisense; 2'-MOE modified, pattern not given here) [MB21D1-1483 MOE] | 0.221
AGATCTGGCAGCCCATCAAC (antisense; 2'-MOE modified, pattern not given here) [CTNN2B-2516 MOE] | 0.677
AGGTCTTGGCTTCGTGGAGC (antisense; 2'-MOE modified, pattern not given here) [MB21D1-522 MOE] | 0.118
ATCCAACACTTCGTGGGGTC (antisense; 2'-MOE modified, pattern not given here) [HPRT-668 MOE] | 0.744
ATGTCCCCTGTTGACTGGTC (antisense; 2'-MOE modified, pattern not given here) [HPRT-489 MOE] | 0.574
ATGTCCCGCCACTGGATGCT (antisense; 2'-MOE modified, pattern not given here) [EGFR-727 MOE] | 0.549
ATGTGATGGCCTCCCATCTC (antisense; 2'-MOE modified, pattern not given here) [HPRT-333 MOE] | 0.439
CAACACTTCGTGGGGTCCTT (antisense; 2'-MOE modified, pattern not given here) [HPRT-665 MOE] | 0.686
CAAGGCCCTTCGCACTTCTT (antisense; 2'-MOE modified, pattern not given here) [EGFR-1225 MOE] | 0.490
CAATGTGATGGCCTCCCATC (antisense; 2'-MOE modified, pattern not given here) [HPRT-335 MOE] | 0.362
CACCCACTTGGCAGACCATC (antisense; 2'-MOE modified, pattern not given here) [CTNN2B-1576 MOE] | 0.658
CAGATAGCACCTTCAGCACT (antisense; 2'-MOE modified, pattern not given here) [CTNN2B-1294 MOE] | 0.388
CCAACACTTCGTGGGGTCCT (antisense; 2'-MOE modified, pattern not given here) [HPRT-666 MOE] | 0.557
CGTGTCTGGAAGCTTCCTTT (antisense; 2'-MOE modified, pattern not given here) [CTNN2B-808 MOE] | 0.426
CTCTTGAAGCATCGTATCAC (antisense; 2'-MOE modified, pattern not given here) [CTNN2B-3648 MOE] | 0.791

Sequence | cGAS 100 nM
CTGTGATCTTGACATGCTGC (antisense; 2'-MOE modified, pattern not given here) [EGFR-2790 MOE] | 0.180
CTTACTTTCCGAGGTGTCCA (antisense; 2'-MOE modified, pattern not given here) [CAMSAP1-1739 MOE] | 0.473
GAACCACGTCTGCTCTAACA (antisense; 2'-MOE modified, pattern not given here) [CAMSAP1-1635 MOE] | 0.518
GAGGTCTTGGCTTCGTGGAG (antisense; 2'-MOE modified, pattern not given here) [MB21D1-523 MOE] | 0.380
GAGTCTCTGGAGCTTCCTCT (antisense; 2'-MOE modified, pattern not given here) [CAMSAP1-2456 MOE] | 0.250
GATGCTCCTCGGTCTCCCTT (antisense; 2'-MOE modified, pattern not given here) [CAMSAP1-1850 MOE] | 0.413
GATGGCCTCCCATCTCCTTC (antisense; 2'-MOE modified, pattern not given here) [HPRT-329 MOE] | 0.687
GCCGCTTTTCTGTCTGGTTC (antisense; 2'-MOE modified, pattern not given here) [CTNN2B-311 MOE] | 0.401
GCGACTATACGCGCAATATG (antisense; 2'-MOE modified, pattern not given here) [NC5 2′MOE] | 0.720
GCGGAGGTCTTGGCTTCGTG (antisense; 2'-MOE modified, pattern not given here) [MB21D1-526 MOE] | 0.346
GCGTATTATAGCCGATTAAC (antisense; 2'-MOE modified, pattern not given here) [NC1 2′MOE] | 0.504
GCGTGTCTGGAAGCTTCCTT (antisense; 2'-MOE modified, pattern not given here) [CTNN2B-809 MOE] | 0.241
GCTTCAGGCGCTGCCTTGCC (antisense; 2'-MOE modified, pattern not given here) [CAMSAP1-2709 MOE] | 0.510
GGAGATTTCAGAGCAGCTTC (antisense; 2'-MOE modified, pattern not given here) [EGFR-4885 MOE] | 0.466
GGAGCTTCGAGGCCCCAGGC (MOE modified, pattern not given here) [MB21D1-616 MOE] | 0.117
GGAGGTCTTGGCTTCGTGGA (antisense; 2'-MOE modified, pattern not given here) [MB21D1-524 MOE] | 0.450
GGCATCCACCACGTCGTCCA (antisense; 2'-MOE modified, pattern not given here) [EGFR-3266 MOE] | 0.478
GGGAAAGGTTATGCAAGGTC (antisense; 2'-MOE modified, pattern not given here) [CTNN2B-916 MOE] | 0.156
GGTCCATACCCAAGGCATCC (antisense; 2'-MOE modified, pattern not given here) [CTNN2B-2446 MOE] | 0.531
GGTGGTCCACAACCCCTTTC (antisense; 2'-MOE modified, pattern not given here) [MB21D1-697 MOE] | 0.292

Sequence | cGAS 100 nM
GGTGGTGGCCACCCATCTCA (antisense; 2'-MOE modified, pattern not given here) [CTNN2B-2479 MOE] | 0.456
GGTGTCCTTGCACGTGGCTT (antisense; 2'-MOE modified, pattern not given here) [EGFR-1016 MOE] | 0.315
GTCCACATCCTGTGGCTCGT (antisense; 2'-MOE modified, pattern not given here) [CAMSAP1-2906 MOE] | 0.455
GTCCTTGCACGTGGCTTCGT (antisense; 2'-MOE modified, pattern not given here) [EGFR-1013 MOE] | 0.374
GTCTTGGCTTCGTGGAGCAG (antisense; 2'-MOE modified, pattern not given here) [MB21D1-520 MOE] | 0.291
GTGTCCTTGCACGTGGCTTC (antisense; 2'-MOE modified, pattern not given here) [EGFR-1015 MOE] | 0.384
GTGTCTTCATCGGCCCTGCC (antisense; 2'-MOE modified, pattern not given here) [CAMSAP1-2113 MOE] | 0.606
TAGGCACTTTGCCTCCTTCT (antisense; 2'-MOE modified, pattern not given here) [EGFR-2859 MOE] | 0.378
TAGTCAAGGGCATATCCTAC (antisense; 2'-MOE modified, pattern not given here) [HPRT-732 MOE] | 0.848
TCAAAGGACTGAGGAAAGGG (antisense; 2'-MOE modified, pattern not given here) [CAMSAP1-6273 MOE] | 0.634
TCCAACACTTCGTGGGGTCC (antisense; 2'-MOE modified, pattern not given here) [HPRT-667 MOE] | 0.799
TCGCACTTCAGTCTGAGCAG (antisense; 2'-MOE modified, pattern not given here) [MB21D1-719 MOE] | 0.305
TGTCCTTGCACGTGGCTTCG (antisense; 2'-MOE modified, pattern not given here) [EGFR-1014 MOE] | 0.515
TGTCTTCATCGGCCCTGCCT (antisense; 2'-MOE modified, pattern not given here) [CAMSAP1-2112 MOE] | 0.557
TGTGATGGCCTCCCATCTCC (antisense; 2'-MOE modified, pattern not given here) [HPRT-332 MOE] | 0.438
TTCTGCAGCTTCCTTGTCCT (antisense; 2'-MOE modified, pattern not given here) [CTNN2B-2136 MOE] | 0.821
TTGCACACTTCGTACCCAAA (antisense; 2'-MOE modified, pattern not given here) [CAMSAP1-4915 MOE] | 0.392
TTGCCATGCTGGCTCGGACT (antisense; 2'-MOE modified, pattern not given here) [CAMSAP1-2584 MOE] | 0.518
TTGGCTCGGCTTGCCTACTT (antisense; 2'-MOE modified, pattern not given here) [CAMSAP1-5594 MOE] | 0.295
